According to US10398692B2, “Terconazole composition and method” (Curatek Pharmaceuticals Holding, Inc., priority 2006, dated 2019):
In brackets after ≈: the same amount, converted by molar mass.

How the values were obtained:
[1] = Solubility of terconazole in water at adjusted pH (Table 1A); type: physicochemical; details: for solubility: water
Source text: In a related experiment, the solubility of terconazole in water was increased to about 2.9 percent by weight using acetic acid at pH of about 5.

[2] = cited from earlier work

solubility ([1]; aqueous buffer, pH 4.23 adjusted with HCl): 3400 µg/mL (≈ 6.39 mM) | solubility of terconazole in water ([1]; using acetic acid at pH of about 5): about 2.9 percent by weight | solubility ([1]; aqueous buffer, pH 4.99 adjusted with acetic acid): 29400 µg/mL (≈ 55.2 mM) | solubility ([1]; pH 7.1, pH not adjusted): 70 µg/mL (≈ 0.131 mM)
Structure (SMILES): CC(C)N1CCN(c2ccc(OCC3COC(Cn4cncn4)(c4ccc(Cl)cc4Cl)O3)cc2)CC1 (stereo not drawn) [Terconazole, cis-1-[p[[2-(2,4-dichlorophenyl)-2-(1H-1,2,4-triazol-1-ylmethyl)-1,3-dioxolan-4-yl]methoxy]phenyl]-4-isopropylpiperazine]
solubility in water [2]: about 0.007 percent by weight
